This is an account of results in ChEMBL document CHEMBL5608211, “Antibody-drug conjugates for targeted cancer therapy: Recent advances in potential payloads” (Eur J Med Chem, 2024).

Type in all cases: functional, cell-based
The test system of one assay is DEL. Nature of the assay: Cytotoxicity against human DEL cells assessed as inhibition of cell growth incubated for 4 days by CellTiter-Glo luminescent assay. The following applies: 96 h.
A further assay concerns LoVo. Nature of the assay: Cytotoxicity against human LoVo cells assessed as inhibition of cell growth incubated for 72 hrs by Promega CellTiter-Glo assay.
For the next assay, the system named is MES-SA. The assay can be described thus: Cytotoxicity against human MES-SA cells assessed as inhibition of cell growth incubated for 72 hrs by CellTiter-Glo luminescent assay.
The subject of the next assay is SK-BR-3. The assay can be described thus: Cytotoxicity against human SK-BR-3 cells incubated for 144 hrs by CellTiter-Glo luminescent assay. The settings on record: SK-BR-3, 144 h.
The nature of assay [1]: Cytotoxicity against human KPL-4 cells assessed as inhibition of cell growth incubated for 3 days by CellTiter-Glo luminescent assay. The settings on record: KPL4, 72 h.

In brackets after ≈: the same amount, converted by molar mass.

For `CC[C@@]1(O)C(=O)OCc2c1cc1n(c2=O)Cc2c-1nc1cc3c(cc1c2CN)OCO3`, in the assay with DEL, the IC50 was found to be 0.7 nM. For the compound `CC(C)(C)[C@H](c1cc(-c2cc(F)ccc2F)cn1Cc1ccccc1)N(CCCN)C(=O)CO`, the concentration for half-maximal inhibition (IC50) with LoVo is under 0.03 nM. Take `COc1c2c(c(O)c3c4c(c(C)cc13)C1O[C@@]3(C(OC)OC)OC1[C@@](O[C@H]1C[C@@H](O)[C@@](O)(C(C)=O)[C@@H](C)O1)(O4)C31CO1)C(=O)[C@@H](C)C[C@@H]2O[C@H]1C[C@@](C)(O)[C@H](OC(C)=O)[C@@H](C)O1` (stereo not given in full): the IC50 with MES-SA amounted to 0.74 nM.

`Cc1cccc2c(O)cc3c(c12)[C@H](CCl)CN3C(=O)c1cn2cc(NC(=O)c3ccc(O)cc3)ccc2n1` gave an IC50 in the assay on SK-BR-3 of 0.09 nM. On to `C=C1C[C@H]2C=Nc3cc(OCCCCCOc4cc5c(cc4OC)C(=O)N4CC(=C)C[C@H]4C(O)N5C(=O)OCc4ccc(SSC(C)(C)C)cc4)c(OC)cc3C(=O)N2C1` (stereo not given in full), for which the IC50 in assay [1] was 6.3 ng/mL (≈ 7.35 nM).
